# Experimental data as given in US20140147860A1, “Acoustic Cytometry Methods and Protocols” (LIFE TECHNOLOGIES CORPORATION, priority 2011, published 2014).
# Assays:
# S. aureus cells = assay: Relative membrane potential in an S. aureus culture, BacLight Bacterial Membrane Potential Kit (DiOC2), flow cytometry; assay type: cell-based, Staphylococcus aureus; conditions: SYTOX Blue-positive dead cells excluded, data not shown
# [1] = tested on: Jurkat cells (T-cell leukemia, human); assay: Apoptosis detection with the Annexin V Dead Cell Apoptosis Kit by acoustic flow cytometry; assay type: cell-based; conditions: 10 μM camptothecin for 4 hr, Annexin V staining, 488 nm excitation
# Text: Apoptotic plasma membrane assays for flow cytometry: Some of the earliest detectable apoptotic events involve the plasma membrane, including changes in membrane asymmetry and permeability. In addition to annexin V conjugates, Life Technologies provides unique assays to measure membrane changes under conditions where annexin V binding is problematic, such as in adherent cells, and without using special buffers. Annexin V conjugates In apoptotic cells, phosphatidylserine (PS) is translocated from the inner to the outer leaflet of the plasma membrane, thus exposing PS to the external cellular environment. Annexin V labeled with a fluorophore can identify apoptotic cells by binding to PS exposed on the outer leaflet of the membrane. The Alexa Fluor® series of dyes, used in Life Technologies Annexin V Dead Cell Apoptosis Kits provides brighter and more photostable bioconjugates than other organic dyes with similar spectral characteristics. Apoptosis detection with the Annexin V Dead Cell Apoptosis Kit. Jurkat cells (T-cell leukemia, human) treated with 10 μM camptothecin for 4 hr (B) or untreated control (A). Cells were stained using the Annexin V Dead Cell Apoptosis Kit and analyzed by flow cytometry with 488 nm excitation on the Attune® Acoustic Focusing Cytometer with 530/30 Xnm and 575/24 nm bandpass filters. Data were acquired with a standard 100 XμL/min collection rate. […]
Structure (SMILES),"red-shifted DiOC2 fluorescence (membrane potential), treated versus untreated sample (S. aureus cells)",percentage of apoptotic cells versus untreated control [1]
"N#CC(C#N)=NNc1cccc(Cl)c1 [CCCP, carbonylcyanide 3-chlorophenylhydrazone]","increased red-shifted DiOC2 fluorescence in the untreated sample (−CCCP, green) as compared to the CCCP-treated sample",–
CC[C@@]1(O)C(=O)OCc2c1cc1n(c2=O)Cc2cc3ccccc3nc2-1 [camptothecin],–,higher percentage of apoptotic cells
